Measured values taken from patent publication US10092541B2, “Methods for the treatment of diseases ameliorated by PDE4 inhibition using dosage titration of apremilast” (CELGENE CORPORATION, priority 2014, dated 2018).
Marks after values point to notes of the source that are not given here.

Columns and labels:
[1] = tested on: patients with moderate to severe plaque psoriasis; assay: Esteem 2: randomized, double-blind, placebo controlled, multicenter clinical study in psoriasis; type: in vivo, human; conditions: for PPPGA score 0 (clear) or 1 (almost clear), %: patients with palmoplantar psoriasis (PPPGA ≥3), n = 26; for ScPGA score 0 (clear) or 1 (minimal), %: patients with scalp psoriasis (ScPGA ≥3), n = 176
Description: In the study 413 patients were enrolled; patients ranged in age from 18 to 83 years, with an overall median age of 46 years. The mean baseline body surface area (BSA) involvement was 25.19% (median 21.0%), the mean baseline PASI score was 19.07 (median 16.80), and the proportion of patients with sPGA score of 3 (moderate) and 4 (severe) at Baseline were 70.0% and 29.8%, respectively. Patients were randomized to Apremilast in an amount of 30 mg twice per day (after the initial dose titration schedule) or placebo for the first 16 weeks, and from Weeks 16 to 32, all patients received Apremilast in an amount of 30 mg twice per day.
Target Dose: 30 mg (po) BID
Day 1: 10 mg in the morning
Day 2: 10 mg morning; 10 mg after noon
Day 3: 10 mg morning; 20 mg after noon
Day 4: 20 mg morning; 20 mg after noon
Day 5: 20 mg morning; 30 mg after noon
During the Randomized Treatment Withdrawal Phase (Weeks 32-52), patients originally randomized to Apremilast who achieved at least a 50% reduction in PASI score (PASI-50) were re-randomized to either placebo or Apremilast 30 mg BID. Patients who were re-randomized to placebo and who lost 50% of the improvement in PASI at Week 32 compared to Baseline, were retreated with Apremilast 30 mg BID.

[2] = tested on: patients with moderate to severe atopic dermatitis; assay: Open-label pilot study of 2 doses of apremilast in adult atopic dermatitis; type: in vivo, human; conditions: for DLQI scores, average reduction / EASI scores, average reduction / patients who reduced their IGA score by 1 U / average reduction in itch using a VAS / DLQI score, mean after treatment / EASI score, mean after treatment / VAS for pruritus, mean after treatment: 3 months; for average reduction in itch using a VAS: intent-to-treat; for EASI after treatment: from 21.1
[3] = Week 16, 30 mg BID, patients with baseline DLQI >5, n = 226
[4] = Week 16, 30 mg BID, patients with nail psoriasis (score ≥1), n = 175
[5] = Week 16, 30 mg BID, listed as Apremilast
[6] = initially randomized to apremilast, did not achieve PASI-50 at Week 32
[7] = patients treated with apremilast from baseline
[8] = placebo at baseline, switched to apremilast at Week 16, achieved PASI-50 at Week 32
[9] = placebo at baseline, switched to apremilast at Week 16, did not achieve PASI-50 at Week 32
[10] = cohort 2, 30 mg twice a day, 6 months

Discontinuation due to upper respiratory tract infection ([1]; human, in vivo): No patient discontinued
SMILES: CCOc1cc([C@@H](CS(C)(=O)=O)N2C(=O)c3cccc(NC(C)=O)c3C2=O)ccc1OC [apremilast, (+)-2-[1-(3-ethoxy-4-methoxyphenyl)-2-methylsulfonylethyl]-4-acetylaminoisoindoline-1,3-dione]
DLQI (decrease of ≥5 points) + PASI-50 response, % [1, 3]: 49.1* %
DLQI response (decrease of ≥5 points), % [1, 3]: 70.8* %
Mean % change in NAPSI score [1, 4]: −29.0** %
NAPSI-50, % [1, 4]: 44.6%
NAPSI-50, % ([1]; Week 16, 30 mg BID, patients with nail psoriasis (score ≥1), n = 175, listed as Apremilast): 44.6* %
PPPGA score 0 (clear) or 1 (almost clear), % ([1]; Week 16, 30 mg BID): 65.4%
PPPGA score 0 (clear) or 1 (almost clear), % [1, 5]: 65.4^|| %
ScPGA score 0 (clear) or 1 (minimal), % ([1]; Week 16, 30 mg BID): 40.9%
ScPGA score 0 (clear) or 1 (minimal), % [1, 5]: 40.9* %
Response rates in placebo patients who switched to apremilast at Week 16 vs apremilast in both treatment periods ([1]; Weeks 16 to 32): response rates similar
Severity of the majority of adverse events ([1]; did not lead to discontinuation): mild to moderate
5 most common adverse events (AEs) ([1]; human, in vivo): diarrhea, nausea, upper respiratory tract infection, tension headache, and headache
Discontinuations due to AEs: diarrhea ([1]; human, in vivo): 0.8%
Discontinuations due to AEs: headache ([1]; human, in vivo): 0.4%
Discontinuations due to AEs: nausea ([1]; human, in vivo): 1.2%
Discontinuations due to AEs: tension headache ([1]; human, in vivo): 0.2%
PASI-50 at Week 52 [1, 6]: 32.8%
mean percent change from baseline in PASI score at Week 52 [1, 6]: −45.7%
median time to first loss of 50% of the PASI improvement obtained at Week 32 ([1]; patients re-randomized to apremilast): 21.9 weeks
PASI, sPGA, and DLQI responses from Weeks 16 to 32 [1, 7]: generally maintained
PASI-50, PASI-75, and PASI-90 responses from Weeks 16 to 32 [1, 7]: generally maintained
PASI-50 at Week 52 [1, 8]: 83.1%
mean percent change in PASI from baseline at Week 52 [1, 8]: −71.8%
PASI-50 at Week 52 [1, 9]: 16.0%
mean percent change from baseline in PASI at Week 52 [1, 9]: −24.7%
signs and symptoms of psoriasis ([1]; study conclusion): significantly improved
DLQI after treatment ([2]; both cohorts combined, post hoc intent-to-treat, mean baseline 11.6): 4.7
EASI score after treatment ([2]; both cohorts combined, post hoc intent-to-treat, mean baseline 24.8): 16.2
VAS after treatment ([2]; both cohorts combined, post hoc intent-to-treat, mean baseline 52.0 mm): 31.7 mm
time to statistically significant decline in pruritus ([2]; cohort 1, 20 mg twice a day): ≤ 2 weeks
DLQI scores, average reduction ([2]; cohort 1, 20 mg twice a day): 55%
EASI scores, average reduction ([2]; cohort 1, 20 mg twice a day): 19%
patients who reduced their IGA score by 1 U ([2]; cohort 1, 20 mg twice a day, 6 patients): 1
average reduction in itch using a VAS ([2]; cohort 1, 20 mg twice a day): 49%
DLQI score, mean after treatment ([2]; cohort 1, 20 mg twice a day, mean baseline 14.2): 6.2
EASI score, mean after treatment ([2]; cohort 1, 20 mg twice a day, mean baseline 30.9): 22.1
VAS for pruritus, mean after treatment ([2]; cohort 1, 20 mg twice a day, mean baseline 62.3 mm): 30.5 mm
time to statistically significant clinical improvement in atopic dermatitis ([2]; cohort 2, 30 mg twice a day): ≤ 2 weeks
patients who achieved an IGA score of mild ([2]; cohort 2, 30 mg twice a day, 3-month time point): One patient
DLQI scores, average reduction ([2]; cohort 2, 30 mg twice a day): 58%
EASI scores, average reduction ([2]; cohort 2, 30 mg twice a day): 39%
patients who reduced their IGA score by 1 U ([2]; cohort 2, 30 mg twice a day, 10 patients): Two of 10 patients
average reduction in itch using a VAS ([2]; cohort 2, 30 mg twice a day): 25%
VAS for pruritus, mean after treatment ([2]; cohort 2, 30 mg twice a day, baseline 45.8 mm): 32.4 mm
DLQI score, mean after treatment ([2]; cohort 2, 30 mg twice a day, mean baseline 10.1): 3.8
EASI score, mean after treatment ([2]; cohort 2, 30 mg twice a day, mean baseline 21.4): 13.2
patients improved at least 1 U in the IGA, % [2, 10]: 50%
patients improved at least 1 U in the IGA, number [2, 10]: Five patients
patients who achieved an IGA of almost clear [2, 10]: 1
patients who reached an IGA of mild [2, 10]: Four of these 5
EASI after treatment ([2]; cohort 2, 30 mg twice a day, 6 months, intent to treat): 11.6
VAS after treatment ([2]; cohort 2, 30 mg twice a day, 6 months, intent to treat, from 45.8 mm): 25.3 mm
DLQI after treatment ([2]; cohort 2, 30 mg twice a day, 6 months, per protocol, from 10.1): 4.0
EASI after treatment ([2]; cohort 2, 30 mg twice a day, 6 months, per protocol): 10.4
VAS after treatment ([2]; cohort 2, 30 mg twice a day, 6 months, per protocol, from 45.8): 22.7
patients who reached an IGA score of clear or almost clear ([2]; either cohort (20 mg or 30 mg twice a day), 3-month time point): No patient
